Here are results for 1 molecule from US11466011B2, “Compounds and their use as inhibitors of N-myristoyl transferase” (Imperial College Innovations Limited, priority 2015, dated 2022).

The target of the test is Trypanosoma brucei (Tb) N-myristoyl transferase (Trypanosoma brucei brucei, UniProt Q388H8). The test is described as follows: Fluorescence-based NMT assay (a), adapted version, TbNMT. The class given is biochemical.

pIC50: −log10 of the molar value.

Chain of Trypanosoma brucei (Tb) N-myristoyl transferase (Q388H8 entry or part of it): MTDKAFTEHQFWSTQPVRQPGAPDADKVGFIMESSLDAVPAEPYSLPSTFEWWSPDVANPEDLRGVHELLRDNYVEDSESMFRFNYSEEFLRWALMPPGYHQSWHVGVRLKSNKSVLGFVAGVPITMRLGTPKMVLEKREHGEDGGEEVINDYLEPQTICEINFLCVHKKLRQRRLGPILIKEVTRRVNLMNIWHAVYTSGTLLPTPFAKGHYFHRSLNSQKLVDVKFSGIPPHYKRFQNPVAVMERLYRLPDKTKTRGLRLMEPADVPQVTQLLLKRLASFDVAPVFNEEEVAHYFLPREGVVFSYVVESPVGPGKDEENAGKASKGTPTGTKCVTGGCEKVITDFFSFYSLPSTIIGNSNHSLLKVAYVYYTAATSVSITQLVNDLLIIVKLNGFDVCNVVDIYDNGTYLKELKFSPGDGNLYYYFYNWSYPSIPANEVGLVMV

The pIC50 is the IC50 on a negative log10 scale, so that one unit is a factor of ten. Low values mean a large IC50, high ones a small IC50. Regarding `Cc1nn(C)c(C)c1CCOc1cc(F)ccc1-c1ccc2[nH]nc(CN(C)C)c2c1` [Example 7], the pIC50 was 7.00 to 9.00.
